Laboratory results published in US20130017616A1, “Methods For Treating Inflammation” (Vanderbilt University - Center for Technology Transfer and …, priority 2011, published 2013).

What was measured:
[1] = target: T1, RNase (Bos taurus, UniProt P61823); assay: Measurements of RNase activity after incubation with HOCl, HOBr or PM; assay type: biochemical; conditions: for effect on RNase activity: RNase 15 μg/mL incubated with different concentrations of the substance at 37° C. for 2 h
T1 construct: purchased Worthington Biochemical Corporation
T1 sequence (P61823 27-150): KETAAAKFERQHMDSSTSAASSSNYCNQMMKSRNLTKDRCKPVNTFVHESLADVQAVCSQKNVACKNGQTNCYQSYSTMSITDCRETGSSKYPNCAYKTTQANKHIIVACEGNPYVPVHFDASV
Description: FIG. 1. […] RNase (15 μg/mL) was incubated alone or with different concentrations of HOCl, HOBr or PM at 37° C. for 2 h. Enzymatic activity was determined as described under Experimental Procedures.
Measurements of RNase Activity—RNase activity was determined by measuring the formation of acid-soluble oligonucleotide as described by Kalnitsky et al, with some modifications previously described by Voziyan et al. For the assay, 100 μL of 3 μg/mL RNase in 100 mM sodium acetate, pH 5.0, was mixed with 100 μL of 1% yeast RNA in the same buffer. After the incubation at 37° C. for 5 min, the reaction was stopped by the addition of 100 μL of an ice-cold solution of 0.8% lanthanum nitrate in 18% perchloric acid. The incubations were kept on ice for 5 min to ensure complete precipitation of undigested RNA and then centrifuged at 12000 g for 10 min. An aliquot of the supernatant (20 μL) was diluted to 1 mL with distilled water, the amount of digested (solubilized) RNA was determined by measuring the absorbance at 260 nm. The activity of RNase incubated either alone or with PM or an amino acid substitute at 37° C. was monitored separately and used as a reference for each incubation time.

[2] = system: integrin α1β1 binding to collagen IV; assay: Modification of collagen IV and integrin binding assay (solid phase); set-up: species or system Human; conditions: 0.1 mM HOCl or HOBr with 0.1 mM PM, 1 h; integrin 1 μg/mL, 2 h at 30° C.
Description: FIG. 6B. EHS Collagen IV was coated onto 96-well plate overnight at 4° C. Collagen IV was incubated with 0.1 mM HOCl or HOBr either with or without 0.1 mM PM for 1 h at 37° C. Collagen IV was then incubated with 1 μg/mL of integrin α1β1 for 2 h at 30° C. Integrin binding was detected in solid phase binding assay using integrin α1β1 antibody. The bars represent background-subtracted […] binding±SD (n=4). *P<0.05, control vs. HOCl or HOBr; **P<0.05, HOCl or HOBr vs. HOCl+PM or HOBr+PM.
Modification of Collagen IV and Integrin Binding Assay—20 μg/mL of type IV collagen in 20 mM sodium phosphate buffer, 7.5, was immobilized on 96 well plates at 4° C. overnight. Nonspecific binding sites were blocked with 1% BSA in TBS for 2 hr at 30° C. as previously described. Wells were washed five times with either TBS or 100 mM sodium phosphate, pH 7.5, before being incubated in the same buffer with or without HOCl/HOBr alone or HOCl/l HOBr plus PM. […] After extensive washing, the bound antibodies were detected using alkaline phosphatase-conjugated anti-mouse IgG antibodies. p-Nitrophenyl phosphate substrate (Sigma) was added to the wells, and absorbance was read at 410 nm. Readings from the samples containing EDTA were subtracted from all the data to obtain the baseline corrected magnesium dependent binding.

[3] = system: EHS collagen IV; assay: Chlorination of type IV collagen by HOCl, N-chloramine assay; assay type: biochemical, murine; conditions: HOCl with equimolar PM, 1 h
Description: N-Chloramine Assay/ TMB Assay—The presence of N-chloramines were determined by the method of Witko et al. [3] and Dypbukt et al. [4]. The former method is based on the colorimetric measurement of triiodide ions formed by the oxidation of potassium iodide (KI) in solution. Chloroamine-T, a commercially available source of N-chloramine, was used to calibrate the assay. 100 mM chloramine-T solution was made fresh in distilled H2O. The 100 mM chloramines-T was diluted to final concentrations ranging from 20 to 100 μM immediately before use. The direct oxidation of Kl by NaOCl was also determined and these values were subtracted as background from the corresponding treated samples. The resulting difference represented the amount of N-chloramine present in each sample. In the latter method the developing reagent was composed of 2 mM TMB in 400 mM acetate buffer, pH 5.4, containing 10% dimethlyforamide and 100 μM sodium iodide. This solution was prepared by dissolving TMB in 100% DMF, diluting with acetate buffer to get the desired final concentration of TMB, and then adding sodium iodide. When the developing reagent was mixed with the solutions of chloramines, the final concentration of TMB was always at least 10 times that of the concentration of chloramines. This prevented further oxidation of the blue product. […]

[4] = system: RNase; assay: LC-MS/MS analysis of RNase modifications (halogenation of Tyr-92 and Tyr-97); assay type: biochemical; conditions: RNase with HOCl or HOBr, with or without PM
Description: FIG. 3A. Modification of functionally important chlorinated Tyr species (Y-92 and Y-97) in RNase by HOCl and protection by PM. *P<0.05, control vs. HOCl (n=3); **P<0.05, HOCl vs. HOCl+PM (n=3).
FIG. 3B. Modification of functionally important chlorinated Tyr species (Y-92 and Y-97) in RNase by HOBr and protection by PM. *P<0.05, control vs. HOBr; **P<0.05, HOBr vs. HOBr+PM.
LC-MS/MS analysis of RNase modifications—The site-specific modifications in RNase were analyzed by tandem mass spectrometry. The samples were prepared using the spin filter protocol for proteomic analysis. RNase samples were digested either with trypsin. The data-dependent scanning was performed using a LTQ Orbitrap^TM (Thermo Fischer Scientific, San Jose, Calif.) mass spectrometer equipped with an Eksigent AS1 autosampler and an Eksigent 1D+HPLC pump attached directly to the instrument's nanospray source. The peptides were separated on a capillary tip, 100 μm×18 cm, packed with C18 resin (Jupiter C18, 3 μm, 300 Å, Phenomenex, Torrance, Calif.) using an inline vented trapping column that was 100 μm×6 cm. […]
The data generated from the data-dependent LC-MS/MS experiments were analyzed using Sequest. […] The peak containing the peptide of interest was extracted from the chromatogram and the area of the peak was determined using Xcalibur™ software. […]

Structure (SMILES) | effect on RNase activity [1] | protection of RNase enzymatic activity against hypohalous acids ([1]; RNase with HOCl or HOBr plus PM) | binding of integrin α1β1 to collagen IV in the presence of HOCl or HOBr [2] | chlorination of collagen IV by hypochlorous acid (protein chloramine content) [3] | halogenation of Tyr-92 and Tyr-97 residues in RNase [4]
OCl [HOCl, hypochlorous acid] | inhibit RNase activity | – | – | – | –
OBr [HOBr, hypobromous acid] | inhibit RNase activity | – | – | – | –
Cc1ncc(CO)c(CN)c1O [PM, Pyridoxamine] | no effect on activity | protected enzymatic activity | protected binding | significantly inhibited chlorination | inhibited halogenation
